The values below come from US8410153B2, “Naphthalene isoxazoline invertebrate pest control agents” (E.I. du Pont de Nemours and Company, priority 2007, dated 2013).

The structures appear in SMILES notation.

The test system of assay [1] is diamondback moth (Plutella xylostella). The experiment in a line: Test A: control of diamondback moth on radish plant, foliar spray. Type of assay: in vivo. Conditions: sprayed at 50 ppm, held 6 days. An excerpt:
For evaluating control of diamondback moth (Plutella xylostella) the test unit consisted of a small open container with a 12-14-day-old radish plant inside. This was pre-infested with about 50 neonate larvae that were dispensed into the test unit via corncob grits using a bazooka inoculator. The larvae moved onto the test plant after being dispensed into the test unit.
(§1) Test compounds were formulated using a solution containing 10% acetone, 90% water and 300 ppm X-77™ Spreader Lo-Foam Formula non-ionic surfactant containing alkylarylpolyoxyethylene, free fatty acids, glycols and isopropanol (Loveland Industries, Inc. Greeley, Colo., USA). The formulated compounds were applied in 1 mL of liquid through a SUJ2 atomizer nozzle with ⅛ JJ custom body (Spraying Systems Co. Wheaton, Ill., USA) positioned 1.27 cm (0.5 inches) above the top of each test unit. All experimental compounds in these tests were sprayed at 50 ppm, and the test was replicated three times. After spraying of the formulated test compound, each test unit was allowed to dry for 1 h and then a black, screened cap was placed on top. The test units were held for 6 days in a growth chamber at 25° C. and 70% relative humidity. Plant feeding damage was then visually assessed based on foliage consumed, and a pest mortality rating was also counted and calculated for each test unit.

The subject of assay [2] is western flower thrips (Frankliniella occidentalis). The assay is described as follows: Test E: control of western flower thrips on Soleil bean plant, contact and/or systemic. Type of assay: in vivo. Conditions: held 6 days. The procedure:
as §1
For evaluating control of the western flower thrips (Frankliniella occidentalis) through contact and/or systemic means, the test unit consisted of a small open container with a 5-7-day-old Soleil Bean plant inside. Test compounds were formulated and sprayed as described for Test A. All experimental compounds in these tests were sprayed at 250 or 50 ppm as noted, and the test was replicated three times. After spraying, the test units were allowed to dry for 1 h, 22-27 adult thrips were added to each unit and then a black, screened cap was placed on top. The test units were held for 6 days at 25° C. and 45-55% relative humidity. A mortality rating was assessed along with a plant damage rating for each test unit.

In the case of `CSCCNC(=O)c1ccc(C2=NOC(c3cccc(F)c3)(C(F)(F)F)C2)c2ccccc12` (stereo not drawn) [Compound 78], in assay [1], the “levels of control efficacy (20% or less feeding damage or 80% or more mortality)” value is “very good to excellent”.

Turning to `O=C(NCCCO)c1ccc(C2=NOC(c3cccc(C(F)(F)F)c3)(C(F)(F)F)C2)c2ccccc12` (racemic) [Compound 42], the “levels of control efficacy (20% or less feeding damage or 80% or more mortality)” value in assay [1], in assay [2] (sprayed at 50 ppm) and in assay [2] (sprayed at 250 ppm) was “very good to excellent” in each case.

Regarding `CC(NC(=O)c1ccc(C2=NOC(c3cc(Cl)cc(C(F)(F)F)c3)(C(F)(F)F)C2)c2ccccc12)C(=O)NCC(C)(C)C` (mixture of isomers) [Compound 131], the “levels of control efficacy (20% or less feeding damage or 80% or more mortality)” value in assay [1] and in assay [2] (sprayed at 250 ppm) was “very good to excellent” in each case. With `O=C(CCNC(=O)c1ccc(C2=NOC(c3cc(Cl)cc(Cl)c3)(C(F)(F)F)C2)c2ccccc12)NCC(F)(F)F` (stereo not drawn) [Compound 9], the “levels of control efficacy (20% or less feeding damage or 80% or more mortality)” value in assay [1] is reported as “very good to excellent”. On to `CNC(=O)C(C)NC(=O)c1ccc(C2=NOC(c3cc(C(F)(F)F)cc(C(F)(F)F)c3)(C(F)(F)F)C2)c2ccccc12` (mixture of isomers) [Compound 95], for which the “levels of control efficacy (20% or less feeding damage or 80% or more mortality)” value in assay [1] is on record as “very good to excellent”. With `CCCNC(=O)C(C)NC(=O)c1ccc(C2=NOC(c3cc(C(F)(F)F)cc(C(F)(F)F)c3)(C(F)(F)F)C2)c2ccccc12` (mixture of isomers) [Compound 84], the “levels of control efficacy (20% or less feeding damage or 80% or more mortality)” value in assay [1], in assay [2] (sprayed at 50 ppm) and in assay [2] (sprayed at 250 ppm) was “very good to excellent” throughout. Regarding `CC(C)CNC(=O)C(C)NC(=O)c1ccc(C2=NOC(c3cc(Cl)cc(C(F)(F)F)c3)(C(F)(F)F)C2)c2ccccc12` (mixture of isomers) [Compound 111], the “levels of control efficacy (20% or less feeding damage or 80% or more mortality)” value in assay [1], in assay [2] (sprayed at 50 ppm) and in assay [2] (sprayed at 250 ppm) was “very good to excellent” throughout.

For `O=C(CNC(=O)c1ccc(C2=NOC(c3cc(F)cc(F)c3)(C(F)(F)F)C2)c2ccccc12)NCC(F)(F)F` (stereo not drawn) [Compound 73], the “levels of control efficacy (20% or less feeding damage or 80% or more mortality)” value in assay [1] and in assay [2] (sprayed at 250 ppm) was “very good to excellent” in each case. As for `CCCNC(=O)C(C)NC(=O)c1ccc(C2=NOC(c3cc(Cl)cc(C(F)(F)F)c3)(C(F)(F)F)C2)c2ccccc12` (mixture of isomers) [Compound 108], the “levels of control efficacy (20% or less feeding damage or 80% or more mortality)” value in assay [1], in assay [2] (sprayed at 50 ppm) and in assay [2] (sprayed at 250 ppm) was “very good to excellent” throughout. In the case of `CCNC(=O)C(C)NC(=O)c1ccc(C2=NOC(c3cc(Cl)cc(C(F)(F)F)c3)(C(F)(F)F)C2)c2ccccc12` (mixture of isomers) [Compound 110], the “levels of control efficacy (20% or less feeding damage or 80% or more mortality)” value in assay [1], in assay [2] (sprayed at 50 ppm) and in assay [2] (sprayed at 250 ppm) was “very good to excellent” in each case. In the case of `CC(NC(=O)CNC(=O)c1ccc(C2=NOC(c3cc(C(F)(F)F)cc(C(F)(F)F)c3)(C(F)(F)F)C2)c2ccccc12)C(F)(F)F` (mixture of isomers) [Compound 104], the “levels of control efficacy (20% or less feeding damage or 80% or more mortality)” value in assay [1] is “very good to excellent”. Same read-out and setting: the entry for `CC(NC(=O)c1ccc(C2=NOC(c3cc(C(F)(F)F)cc(C(F)(F)F)c3)(C(F)(F)F)C2)c2ccccc12)C(=O)NCC(F)(F)F` (mixture of isomers) [Compound 94] is “very good to excellent”. Take `CC(C)NC(=O)C(C)NC(=O)c1ccc(C2=NOC(c3cc(Cl)cc(C(F)(F)F)c3)(C(F)(F)F)C2)c2ccccc12` (mixture of isomers) [Compound 107]: the “levels of control efficacy (20% or less feeding damage or 80% or more mortality)” value in assay [1], in assay [2] (sprayed at 50 ppm) and in assay [2] (sprayed at 250 ppm) was “very good to excellent” in each case. As for `CC(C)C(NC(=O)c1ccc(C2=NOC(c3cc(Cl)cc(Cl)c3)(C(F)(F)F)C2)c2ccccc12)C(=O)NCC(F)(F)F` (mixture of isomers) [Compound 2], in assay [1], the “levels of control efficacy (20% or less feeding damage or 80% or more mortality)” value is “very good to excellent”. For `CC(NC(=O)c1ccc(C2=NOC(c3cc(C(F)(F)F)cc(C(F)(F)F)c3)(C(F)(F)F)C2)c2ccccc12)C(=O)NCC(C)(C)C` (mixture of isomers) [Compound 97], the “levels of control efficacy (20% or less feeding damage or 80% or more mortality)” value in assay [2] (sprayed at 50 ppm) is “very good to excellent”.

For `CS(=O)(=O)CCNC(=O)c1ccc(C2=NOC(c3cc(F)cc(F)c3)(C(F)(F)F)C2)c2ccccc12` (stereo not drawn) [Compound 80], the “levels of control efficacy (20% or less feeding damage or 80% or more mortality)” value in assay [1] and in assay [2] (sprayed at 250 ppm) was “very good to excellent” throughout.

In the case of `O=C(CNC(=O)c1ccc(C2=NOC(c3cccc(F)c3)(C(F)(F)F)C2)c2ccccc12)NCC(F)(F)F` (stereo not drawn) [Compound 74], the “levels of control efficacy (20% or less feeding damage or 80% or more mortality)” value in assay [1] was “very good to excellent”.

Regarding `CC(C)NC(=O)CNC(=O)c1ccc(C2=NOC(c3cc(F)cc(F)c3)(C(F)(F)F)C2)c2ccccc12` (stereo not drawn) [Compound 75], the “levels of control efficacy (20% or less feeding damage or 80% or more mortality)” value in assay [1] was “very good to excellent”. For `CC(C)NC(=O)CNC(=O)c1ccc(C2=NOC(c3cccc(F)c3)(C(F)(F)F)C2)c2ccccc12` (stereo not drawn) [Compound 76], the “levels of control efficacy (20% or less feeding damage or 80% or more mortality)” value in assay [1] was “very good to excellent”. Turning to `CC(NC(=O)c1ccc(C2=NOC(c3cc(Cl)cc(C(F)(F)F)c3)(C(F)(F)F)C2)c2ccccc12)C(=O)NCC(F)(F)F` (mixture of isomers) [Compound 106], the “levels of control efficacy (20% or less feeding damage or 80% or more mortality)” value in assay [1], in assay [2] (sprayed at 50 ppm) and in assay [2] (sprayed at 250 ppm) was “very good to excellent” throughout.

Turning to `CNC(=O)C(C)NC(=O)c1ccc(C2=NOC(c3cc(Cl)cc(C(F)(F)F)c3)(C(F)(F)F)C2)c2ccccc12` (mixture of isomers) [Compound 109], the “levels of control efficacy (20% or less feeding damage or 80% or more mortality)” value in assay [1], in assay [2] (sprayed at 50 ppm) and in assay [2] (sprayed at 250 ppm) was “very good to excellent” each time. As for `CC(C)(C)SCCNC(=O)c1ccc(C2=NOC(c3cccc(C(F)(F)F)c3)(C(F)(F)F)C2)c2ccccc12` (racemic) [Compound 57], the “levels of control efficacy (20% or less feeding damage or 80% or more mortality)” value in assay [1] is on record as “very good to excellent”.

As for `CC(C)(CO)CNC(=O)c1ccc(C2=NOC(c3cccc(C(F)(F)F)c3)(C(F)(F)F)C2)c2ccccc12` (stereo not drawn) [Compound 61], in assay [1], the “levels of control efficacy (20% or less feeding damage or 80% or more mortality)” value is listed as “very good to excellent”.
